Starred links: 1 amine or outer side, 2 acyl side, 3 side chain; linkers in the order of their positions; H or OH if unused. Positions of bridges follow the written chain, without caps; N, C: chain ends. Residues, ends and D or L forms follow the SMILES beside them. *: point of attachment. C20 diacid = O=C(O)CCCCCCCCCCCCCCCCCCC(=O)*; C18 diacid = O=C(O)CCCCCCCCCCCCCCCCC(=O)*; γGlu = O=C(O)[C@H](CCC(=O)[*:2])N[*:1]
Test: Assay (III) ThT fibrillation assay for physical stability
Type: physicochemical
Method in brief: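 Freshly prepared formulations, pH-adjusted, with 1 μM ThT; four or eight replicates incubated at 37 °C under 960 rpm orbital shaking. Fluorescence (ex 444/em 485 nm) read every 20 min; […]. Peptide concentration measured by RP-HPLC before and after the run.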

ThT pH 4.0 lag time (Table 8)	ThT pH 4.0 lag time (Table 9)	ThT pH 4.0 lag time (ThT fibrillation assay)	ThT pH 4.0 lag time (h) (ThT fibrillation assay)	Structure (SMILES)
>45 h	>45 h	>45 h	>45 h	CC[C@H](C)[C@H](NC(=O)[C@@H]1CCCN1C(=O)CNC(=O)[C@H](Cc1ccccc1)NC(=O)[C@H](CC(N)=O)NC(=O)[C@H](CCC(N)=O)NC(=O)[C@H](CO)NC(=O)[C@H](CO)NC(=O)[C@H](Cc1c[nH]cn1)NC(=O)[C@H](Cc1c[nH]cn1)NC(=O)[C@H](CC(C)C)NC(=O)[C@H](Cc1ccccc1)NC(=O)[C@H](CCC(=O)O)NC(=O)[C@H](C)NC(=O)[C@H](CC(C)C)NC(=O)[C@H](CCCNC(=N)N)NC(=O)[C@H](CCC(N)=O)NC(=O)[C@@H](NC(=O)[C@H](C)NC(=O)[C@@H]1CSSC[C@H](NC(=O)[C@H](CCCCN)NC(=O)CC[C@H](NC(=O)CCCCCCCCCCCCCCCCCCC(=O)O)C(=O)O)C(=O)N[C@@H](CC(N)=O)C(=O)N[C@@H]([C@@H](C)O)C(=O)N[C@@H](C)C(=O)N[C@@H]([C@@H](C)O)C(=O)N1)[C@@H](C)O)C(=O)N[C@@H](CC(C)C)C(=O)N1CCC[C@H]1C(=O)N1CCC[C@H]1C(=O)N[C@H](C(=O)N[C@@H](CC(N)=O)C(=O)N[C@H](C(=O)NCC(=O)N[C@@H](CO)C(=O)N[C@@H](Cc1c[nH]cn1)C(=O)N[C@H](C(=O)N[C@@H](Cc1ccc(O)cc1)C(N)=O)[C@@H](C)O)C(C)C)[C@@H](C)O [Example 117, N-alpha-[(S)-4-Carboxy-4-(19-carboxynonadecanoylamino)butyryl]-[Glu14,His17,Gln21,His35)-pramlintide] ({C20 diacid-γGlu}-KCNTATCATQRLAEFLHHSSQNFGPILPPTNVGSHTY-NH2; disulfide 2-7 (inferred); C-terminus assumed)
–	–	>45 h	>45 h	CC[C@H](C)[C@H](NC(=O)[C@@H]1CCCN1C(=O)CNC(=O)[C@H](Cc1ccccc1)NC(=O)[C@H](CC(N)=O)NC(=O)[C@H](CC(N)=O)NC(=O)[C@H](CO)NC(=O)[C@H](CO)NC(=O)[C@H](Cc1c[nH]cn1)NC(=O)[C@H](CCCNC(=N)N)NC(=O)[C@H](CC(C)C)NC(=O)[C@H](Cc1ccccc1)NC(=O)[C@H](CCC(=O)O)NC(=O)[C@H](C)NC(=O)[C@H](CC(C)C)NC(=O)[C@H](CCCNC(=N)N)NC(=O)[C@H](CCC(N)=O)NC(=O)[C@@H](NC(=O)[C@H](C)NC(=O)[C@@H]1CSSC[C@H](NC(=O)[C@H](CCCCN)NC(=O)CC[C@H](NC(=O)CCCCCCCCCCCCCCCCCCC(=O)O)C(=O)O)C(=O)N[C@@H](CC(N)=O)C(=O)N[C@@H]([C@@H](C)O)C(=O)N[C@@H](C)C(=O)N[C@@H]([C@@H](C)O)C(=O)N1)[C@@H](C)O)C(=O)N[C@@H](CC(C)C)C(=O)N1CCC[C@H]1C(=O)N1CCC[C@H]1C(=O)N[C@H](C(=O)N[C@@H](CC(N)=O)C(=O)N[C@H](C(=O)NCC(=O)N[C@@H](CO)C(=O)N[C@@H](CC(N)=O)C(=O)N[C@H](C(=O)N[C@@H](Cc1ccc(O)cc1)C(N)=O)[C@@H](C)O)C(C)C)[C@@H](C)O [Example 50, N-alpha-[(S)-4-Carboxy-4-(19-carboxynonadecanoylamino)butyryl]-[Glu14,Arg17]-pramlintide] ({C20 diacid-γGlu}-KCNTATCATQRLAEFLRHSSNNFGPILPPTNVGSNTY-NH2; disulfide 2-7 (inferred))
–	–	>45 h	>45 h	CC[C@H](C)[C@H](NC(=O)[C@@H]1CCCN1C(=O)CNC(=O)[C@H](Cc1ccccc1)NC(=O)[C@H](CC(N)=O)NC(=O)[C@H](CC(N)=O)NC(=O)[C@H](CO)NC(=O)[C@H](CO)NC(=O)[C@H](Cc1c[nH]cn1)NC(=O)[C@H](CCCNC(=N)N)NC(=O)[C@H](CC(C)C)NC(=O)[C@H](Cc1ccccc1)NC(=O)[C@H](CCC(=O)O)NC(=O)[C@H](C)NC(=O)[C@H](CC(C)C)NC(=O)[C@H](CCCNC(=N)N)NC(=O)[C@H](CCC(N)=O)NC(=O)[C@@H](NC(=O)[C@H](C)NC(=O)[C@@H]1CSSC[C@H](NC(=O)[C@H](CCCCN)NC(=O)[C@H](Cc2c[nH]cn2)NC(=O)CC[C@H](NC(=O)CCCCCCCCCCCCCCCCC(=O)O)C(=O)O)C(=O)N[C@@H](CC(N)=O)C(=O)N[C@@H]([C@@H](C)O)C(=O)N[C@@H](C)C(=O)N[C@@H]([C@@H](C)O)C(=O)N1)[C@@H](C)O)C(=O)N[C@@H](CC(C)C)C(=O)N1CCC[C@H]1C(=O)N1CCC[C@H]1C(=O)N[C@H](C(=O)N[C@@H](CC(N)=O)C(=O)N[C@H](C(=O)NCC(=O)N[C@@H](CO)C(=O)N[C@@H](Cc1c[nH]cn1)C(=O)N[C@H](C(=O)N[C@@H](Cc1ccc(O)cc1)C(N)=O)[C@@H](C)O)C(C)C)[C@@H](C)O [Example 71, N-alpha-[(S)-4-Carboxy-4-(17-carboxyheptadecanoylamino)butyryl]-His-[Glu14,Arg17,His35]-pramlintide] ({C18 diacid-γGlu}-HKCNTATCATQRLAEFLRHSSNNFGPILPPTNVGSHTY-NH2; disulfide 3-8 (inferred); C-terminus assumed)
–	–	–	0 h	CC[C@H](C)[C@H](NC(=O)[C@H](CCC(=O)O)NC(=O)CNC(=O)[C@H](Cc1ccccc1)NC(=O)[C@H](CC(N)=O)NC(=O)[C@H](CC(N)=O)NC(=O)[C@H](CO)NC(=O)[C@H](CO)NC(=O)[C@H](CCCNC(=N)N)NC(=O)[C@H](Cc1c[nH]cn1)NC(=O)[C@H](CC(C)C)NC(=O)[C@H](Cc1ccccc1)NC(=O)[C@H](CCC(=O)O)NC(=O)[C@H](C)NC(=O)[C@H](CC(C)C)NC(=O)[C@H](CCCNC(=N)N)NC(=O)[C@H](CCC(N)=O)NC(=O)[C@@H](NC(=O)[C@H](C)NC(=O)[C@@H]1CSSC[C@H](NC(=O)[C@H](Cc2c[nH]cn2)NC(=O)CC[C@H](NC(=O)CCCCCCCCCCCCCCCCCCC(=O)O)C(=O)O)C(=O)N[C@@H](CC(N)=O)C(=O)N[C@@H]([C@@H](C)O)C(=O)N[C@@H](C)C(=O)N[C@@H]([C@@H](C)O)C(=O)N1)[C@@H](C)O)C(=O)N[C@@H](CC(C)C)C(=O)N[C@@H](CO)C(=O)N[C@@H](CCCNC(=N)N)C(=O)N[C@H](C(=O)N[C@@H](CC(N)=O)C(=O)N[C@H](C(=O)NCC(=O)N[C@@H](CO)C(=O)N[C@@H](CC(N)=O)C(=O)N[C@H](C(=O)N[C@@H](Cc1ccc(O)cc1)C(N)=O)[C@@H](C)O)C(C)C)[C@@H](C)O [Example 7, N-alpha-[(S)-4-Carboxy-4-(19-carboxynonadecanoylamino)butyryl]-[His1,Glu14,His17,Arg18,Glu25,Ser28,Arg29]-pramlintide] ({C20 diacid-γGlu}-HCNTATCATQRLAEFLHRSSNNFGEILSRTNVGSNTY-NH2; disulfide 2-7 (inferred); C-terminus assumed)

Source: patent publication US8722849B2, “Polypeptides” (Novo Nordisk A/S, priority 2011, dated 2014)
